Assay [1] concerns Heparanase gene expression. Nature of the assay: Real-Time PCR of Heparanase gene expression in HMEC cells. It is filed as cell-based, human. As to conditions: DF 150 μg/ml, 24 h, vs saline control, triplicate. As to the method: (§1) To evaluate the effect of DF either on Heparanase expression and its activity, the U266 and HMEC cells were incubated for 24 h with DF at different concentrations or saline (control cells). After incubation with Defibrotide, the cells were washed with phosphate-buffered saline (PBS) pH 7.4, and different U266 and HMEC samples were prepared for different experiments.
(§2) RNA has been isolated from U266 and HMEC cells (1.5×10^5 Cells/ml) treated with saline (control) or DF at doses of 150 and 400 μg/ml for 24 h. To isolate the RNA were used the RNeasy Mini Kit from Qiagen according the manufacture's instructions.
(§3) The 1% agarose gel electrophoresis, stained with Ethidium Bromide, was performed on all samples to check for presence of clear 28S and 18S ribosomal subunit bands. […]
(§4) In order to perform the Real Time PCR was used the SYBER Green PCR Master Mix Reagent (SYBER Green PCR--Bio-Rad). Direct detection of polymerase chain reaction (PCR) product was monitored by measuring the increase in fluorescence caused by the binding of SYBER Green to double-stranded DNA. […]
Real-Time PCR was performed on cDNAs prepared from HMEC cells treated with saline (control) or DF at dose of 150 μg/ml. The experiments were performed in triplicate and the results are expressed as mRNA levels normalized by the housekeeping actin gene.
(Quantitative PCR measures a nucleic acid by following its amplification.)

Assay [2] relates to Heparanase gene expression. Kind of assay: Real-Time PCR of Heparanase gene expression in U266 myeloma cells. It is filed as cell-based. As to conditions: DF 150 and 400 μg/ml, 24 h, vs saline control, triplicate. The protocol:
as §1, §2, §3, §4
Real-Time PCR was performed on cDNAs prepared from U266 cells treated with saline (control) or DF at dose of 150 and 400 μg/ml. The experiments were performed in triplicate and the results are expressed as mRNA levels normalized by the housekeeping actin gene.

Assay [3] has as its target T1, Heparanase (Homo sapiens, UniProt Q9Y251).
T1 construct: The Heparanase activity was measured in U266 extracts (1×10^5 Cell/ml of extraction buffer) by a commercial Heparan Degrading Enzyme Kit; endogenous in cells; host or cells: U266 myeloma cells (cell extract)
T1 sequence (Q9Y251 158-543 limits assumed): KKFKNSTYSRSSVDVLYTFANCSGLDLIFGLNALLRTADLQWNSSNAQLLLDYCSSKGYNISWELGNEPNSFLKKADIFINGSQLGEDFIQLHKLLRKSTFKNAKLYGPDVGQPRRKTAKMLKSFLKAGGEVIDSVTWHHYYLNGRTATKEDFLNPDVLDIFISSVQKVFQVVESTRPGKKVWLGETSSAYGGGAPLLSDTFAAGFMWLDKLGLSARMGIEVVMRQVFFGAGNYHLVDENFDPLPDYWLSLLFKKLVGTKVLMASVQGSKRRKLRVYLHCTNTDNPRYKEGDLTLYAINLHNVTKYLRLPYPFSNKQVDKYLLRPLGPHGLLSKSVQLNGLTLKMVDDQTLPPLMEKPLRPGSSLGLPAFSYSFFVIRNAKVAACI
T1 sequence (Q9Y251 36-109 limits assumed): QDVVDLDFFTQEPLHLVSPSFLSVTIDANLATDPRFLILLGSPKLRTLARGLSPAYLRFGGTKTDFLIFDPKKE
Nature of the assay: Heparanase activity assay (Heparan Degrading Enzyme Assay Kit) in U266 extracts. The conditions noted are these: U266 cells, DF 50, 100 and 150 μg/ml, 24 h, vs saline control, triplicate. It is filed as cell-based. The protocol:
as §1
The Heparanase activity was measured in U266 extracts (1×10^5 Cell/ml of extraction buffer) by a commercial Heparan Degrading Enzyme Kit (Takara-bio Inc.) according to manufacturer's instruction. The U266 cells have been treated with saline (control) or DF at doses of 50, 100 and 150 μg/ml for 24 h.
Heparan Degrading Enzyme Assay Kit measure the activity of heparan degrading enzyme in cultured cells, utilizing the property that heparan-like molecules and bFGF (basic fibroblast growth factor) combine each other. CBD-FGF is a fusion protein of cell-binding domain of human fibronectin and human fibroblast growth factor (Takara-bio Inc.). […]
The activity of Heparanase were measured using the Heparanse Degrading Enzyme Assay kit on U266 cells treated with saline (control) or Defibrotide at dose of 50, 100 and 150 μg/ml. The experiments were performed in triplicate and the activity of Heparanase is shown with decrease of absorbance.

Entries after “also recorded” stand apart in the source; their conditions may differ.

On to defibrotide [DF], for which the “Effect on Heparanase gene expression (mRNA levels normalized by the housekeeping actin gene)” value in assay [1] is on record as “acts on Microvascular endothelial cells through altering the Heparanase gene expression; also recorded: downregulation of Heparanase gene expression on HMEC cells”; in assay [2] it was “acts on U266 myeloma cells line through altering the Heparanase gene expression; also recorded: down regulation of Heparanase gene”. In assay [3], the “Effect on enzymatic activity of Heparanase (shown with decrease of absorbance)” value was “interferes on the Heparanase activity in the myeloma cell line; also recorded: decrease of its enzymatic activity”.

Values taken from patent publication US20150196580A1, “USE OF DEFIBROTIDE FOR THE INHIBITION OF HEPARANASE” (GENTIUM SPA, priority 2006, published 2015).
